Data published in patent publication US20240101548A1, “HYDROXAMATE COMPOUND, PREPARATION METHOD THEREFOR AND APPLICATION THEREOF” (SHENZHEN CHIPSCREEN BIOSCIENCES CO., LTD., priority 2020, published 2024).
Where two headings read alike, the source gives them in different places.

What was measured:
[1] = test system: IL-10-induced JAK1/TYK2 signal pathway; test: IL-10-induced JAK1/TYK2 signal pathway STAT3-Luc reporter gene assay in U2OS cells; format: cell-based, human; conditions: Homo sapiens, U2OS cells, STAT3-Luc reporter, IL-10 10 ng/mL, read-out: Half inhibition dose (IC50) on IL-10-induced JAK1/TYK2 signal pathway
Outline: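 Luciferase read-out (560 nm) corrected by GFP signal (Ex485/Em520) gives IL-10 pathway activity, and IC50 is derived from inhibition rates. Cells were U2OS transfected with IL-10R1 plus STAT3-Luc reporter, pretreated 6 h with 0.1–300 nM compound, then stimulated 24 h with IL-10 at 10 ng/mL.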

[2] = test system: IL-2-induced JAK1/JAK3 signal pathway; test: IL-2-induced proliferation of KHYG-1 cells (JAK1/JAK3 signal); format: cell-based, human; conditions: Homo sapiens; KHYG-1 cell proliferation, IL-2 10 ng/mL, 72 hours; read-out: Inhibition activity IC50 on IL-2-induced JAK1/JAK3 signal pathway
Outline: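 Controls were wells lacking both compound and cytokine (0%) and compound-free IL-2 wells (100%). C50 was calculated from inhibition rates across doses.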

[3] = test system: EPO-induced JAK2 signal pathway; test: EPO-induced proliferation of UT-7 cells (JAK2 signal); format: cell-based, human; conditions: Homo sapiens, UT7; UT-7 cell proliferation, EPO 10 ng/mL, 72 hours; read-out: Inhibition activity IC50 on EPO-induced JAK2 signal pathway
Outline: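 […] was derived from inhibition rates across doses, scaled between wells lacking compound and cytokine (0) and EPO without compound (100), using alamarBlue fluorescence at Ex530/Em590. Compound (final 0-10000 nM) and 10 ng/mL EPO were given to UT-7 cells at 15000 per well for 72 h at 37° C.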

TYK2 JH2 domain = TYK2 JH2 domain (Homo sapiens (Human), UniProt P29597); test: TYK2 JH2 domain FRET tracer assay; format: binding; conditions: FRET 665/615 nm; read-out: Inhibition activity IC50 on TYK2 JH2 domain
Method: Compound of the present invention formulated into different concentrations (series 3 times dilutions, started from 60 μM, 11 concentrations in total) was added to 384-well plate, followed by 5 μL of enzyme (i.e., TYK2 JH2 domain), Tb antibody (Cisbio) and tracer. The mixture was incubated at 25° C. for 60 min and left at 4° C. overnight.

[4] = In-vivo pharmacokinetic test in mice; conditions: mouse, po; BALB/c female mice, gavage 10 mg/kg, plasma
Method: LC-MS/MS method is used to determine the drug concentration in the plasma of mice at different times after intragastric administration of the compound of the example. Relevant pharmacokinetic parameters are calculated to study the pharmacokinetic behavior of the compound of the present invention in mice, thereby evaluating the pharmacokinetic characteristics thereof.
Test animal was healthy adult BALB/c female mouse (provided by Chengdu Yaokang Biotechnology Co., Ltd.);
Compound administration and sample collection: compound was administered to BALB/c female mice by gavage (10 mg/kg). At 0.25, 0.5, 1, 2, 4, 6, 8, and 24 hours after administration, 60 μL of whole blood of the mouse fundus venous plexus were collected and centrifuged at 4000 rpm for 10 min to provide plasma.
Sample analysis: 10 μL of mouse plasma samples were respectively added with 290 μL of acetonitrile solution containing internal standard to precipitate proteins. After swirling for 10 min and centrifuging at 4000 rpm for 10 min, 200 μL of supernatant was added to 96-well plate, and analyzed by LC-MS/MS at an injection volume of 1 μL.

Chain of TYK2 JH2 domain (P29597 589-875): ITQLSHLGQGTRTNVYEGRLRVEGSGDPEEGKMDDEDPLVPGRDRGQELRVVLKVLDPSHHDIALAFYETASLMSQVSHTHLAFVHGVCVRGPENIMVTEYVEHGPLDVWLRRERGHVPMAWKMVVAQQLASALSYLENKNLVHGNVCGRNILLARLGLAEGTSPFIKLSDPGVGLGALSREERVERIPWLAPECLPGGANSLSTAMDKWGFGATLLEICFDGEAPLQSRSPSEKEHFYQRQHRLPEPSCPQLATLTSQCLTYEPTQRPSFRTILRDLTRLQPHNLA

Row | Structure (SMILES) | IC50 ([1]; U2OS) | IC50 [2] | IC50 [3] | IC50 (TYK2 JH2 domain) | AUC [4] | Cmax [4] | IC50 [1]
1 | CCONC(=O)c1cnc(Nc2cc(C)nc(C)n2)cc1Nc1cc(F)cc(-c2cnc(C)cn2)c1OC [Example 214] | 0.16 nM | > 10000 nM | > 10000 nM | 0.09 nM | 41.9 µM·h | 9.21 µM | –
2 | CCONC(=O)c1cnc(NC(=O)C2CC2(F)F)cc1Nc1ccc(C2CC2)cc1N(C)S(C)(=O)=O (stereo not drawn) [Example 277, 4-((4-cyclopropyl-2-(N-methylmethanesulfonamido)phenyl)amino)-6-(2,2-difluorocyclopropyl-1-carboxamido)-N-ethoxy nicotinamide] | 0.466 nM | > 10000 nM | > 10000 nM | 0.12 nM | – | – | –
3 | CCONC(=O)c1cnc(Nc2cc(C)nc(C)n2)cc1Nc1cc(F)cc(-c2ncn(C3CC3)n2)c1OC [Example 204] | 0.534 nM | > 10000 nM | > 10000 nM | 0.06 nM | – | – | –
4 | CCONC(=O)c1cnc(Nc2cc(C)nc(C)n2)cc1Nc1cc(F)c(C(C)C)cc1N(C)S(C)(=O)=O [Example 229, 6-((2,6-dimethylpyrimidin-4-yl)amino)-N-ethoxy-4-((5-fluoro-4-isopropyl-2-(N-methylmethanesulfonamido)phenyl)amino)nicotinamide] | 0.424 nM | > 10000 nM | > 10000 nM | 0.05 nM | – | – | –
5 | CCONC(=O)c1cnc(Nc2cc(C)nc(C)n2)cc1Nc1ccc(Cl)cc1N(C)S(C)(=O)=O [Example 115, 4-((4-chloro-2-(N-methylmethanesulfonamido)phenyl)amino)-6-((2,6-dimethylpyrimidin-4-yl)amino)-N-ethoxy nicotinamide] | 0.261 nM | > 10000 nM | > 10000 nM | 0.07 nM | – | – | –
6 | CCONC(=O)c1cnc(Nc2cc(C)nc(C)n2)cc1Nc1ccc(C2CC2)cc1N(C)S(C)(=O)=O [Example 21, 4-((4-cyclopropyl-2-(N-methylmethanesulfonamido)phenyl)amino)-6-((2,6-dimethylpyrimidin-4-yl)amino)-N-ethoxy nicotinamide] | 0.421 nM | > 10000 nM | > 10000 nM | 0.05 nM | – | – | –
7 | CCONC(=O)c1cnc(Nc2ccnc(C)n2)cc1Nc1ccc(C2CC2)cc1N(C)S(C)(=O)=O [Example 192, 4-((4-cyclopropyl-2-(N-methylmethanesulfonamido)phenyl)amino)-N-ethoxy-6-((2-methylpyrimidin-4-yl)amino)nicotinamide] | 0.458 nM | > 10000 nM | > 10000 nM | 0.08 nM | – | – | –
8 | CCONC(=O)c1cnc(Nc2cc(C)nc(C)n2)cc1Nc1cccc(-c2ncc(F)cn2)c1OC [Example 208, 6-((2,6-dimethylpyrimidin-4-yl)amino)-N-ethoxy-4-((3-(5-fluoropyrimidin-2-yl)-2-methoxyphenyl)amino)nicotinamide] | 0.889 nM | > 10000 nM | > 10000 nM | – | 34.3 µM·h | 16.4 µM | –
9 | CCONC(=O)c1cnc(Nc2cc(C)nc(C)n2)cc1Nc1cc(F)c(CC)cc1N(C)S(C)(=O)=O [Example 193, 6-((2,6-dimethylpyrimidin-4-yl)amino)-N-ethoxy-4-((4-ethyl-5-fluoro-2-(N-methylmethanesulfonamido)phenyl)amino)nicotinamide] | 0.647 nM | > 10000 nM | > 10000 nM | 0.06 nM | – | – | –
10 | CCONC(=O)c1cnc(Nc2cc(C)nc(C)n2)cc1Nc1ccc(OCC)cc1N(C)S(C)(=O)=O [Example 181] | 0.56 nM | > 10000 nM | > 10000 nM | 0.08 nM | – | – | –
11 | CCONC(=O)c1cnc(Nc2ccnc(OC)n2)cc1Nc1cc(F)c(Cl)cc1N(C)S(C)(=O)=O [Example 200, 4-((4-chloro-5-fluoro-2-(N-methylmethanesulfonamido)phenyl)amino)-N-ethoxy-6-((2-methoxypyrimidin-4-yl)amino)nicotinamide] | 0.42 nM | > 10000 nM | > 10000 nM | 0.06 nM | – | – | –
12 | CCONC(=O)c1cnc(Nc2cc(C)nc(C)n2)cc1Nc1cccc(-c2cnc(C)cn2)c1OC [Example 213] | 0.146 nM | > 10000 nM | > 10000 nM | – | 49.3 µM·h | 18 µM | –
13 | CCONC(=O)c1cnc(Nc2cc(C)nc(C)n2)cc1Nc1ccc(C(C)C)cc1N(C)S(C)(=O)=O [Example 201, 6-((2,6-dimethylpyrimidin-4-yl)amino)-N-ethoxy-4-((4-isopropyl-2-(N-methylmethanesulfonamido)phenyl)amino)nicotinamide] | – | > 10000 nM | > 10000 nM | 0.06 nM | – | – | 0.541 nM
14 | CCONC(=O)c1cnc(Nc2ccnc(C)n2)cc1Nc1cc(F)c(C2CC2)cc1N(C)S(C)(=O)=O [Example 194, 4-((4-cyclopropyl-5-fluoro-2-(N-methylmethanesulfonamido)phenyl)amino)-N-ethoxy-6-((2-methylpyrimidin-4-yl)amino)nicotinamide] | 0.6 nM | > 10000 nM | > 10000 nM | 0.08 nM | – | – | –
15 | CCONC(=O)c1cnc(Nc2cc(C)nc(C)n2)cc1Nc1cc(F)c(Cl)cc1N(C)S(C)(=O)=O [Example 198, 4-((4-chloro-5-fluoro-2-(N-methylmethanesulfonamido)phenyl)amino)-6-((2,6-dimethylpyrimidin-4-yl)amino)-N-ethoxy nicotinamide] | 0.65 nM | > 10000 nM | > 10000 nM | 0.08 nM | – | – | –
16 | CCONC(=O)c1cnc(Nc2cc(C)nc(C)n2)cc1Nc1cc(F)c(C2CC2)cc1N(C)S(C)(=O)=O [Example 98] | 1.51 nM | > 10000 nM | > 10000 nM | 0.09 nM | – | – | –
17 | CCONC(=O)c1cnc(Nc2cc(C)nc(C)n2)cc1Nc1ccc(C)nc1N(C)S(C)(=O)=O [Example 186] | 0.276 nM | > 10000 nM | > 10000 nM | 0.07 nM | – | – | –
18 | CCONC(=O)c1cnc(NC(=O)C2CC2)cc1Nc1ccccc1N(C)S(C)(=O)=O [Example 90, 6-(cyclopropylcarboxamido)-N-ethoxy-4-((2-(N-methylmethanesulfonamido)phenyl)amino)nicotinamide] | 1.4 nM | > 10000 nM | > 10000 nM | – | – | – | –
19 | C#Cc1ccc(Nc2cc(Nc3ccc(C#N)cn3)ncc2C(=O)NOCC)c(N(C)S(C)(=O)=O)c1 [Example 142, 6-(5-cyanopyridin-2-ylamino)-N-ethoxy-4-((4-ethynyl-2-(N-methylmethanesulfonamido)phenyl)amino)nicotinamide] | 0.41 nM | > 10000 nM | > 10000 nM | – | – | – | –
20 | CCONC(=O)c1cnc(Nc2ccc(OC)cn2)cc1Nc1ccc(C2CC2)cc1N(C)S(C)(=O)=O [Example 20, 4-((4-cyclopropyl-2-(N-methylmethanesulfonamido)phenyl)amino)-N-ethoxy-6-((5-methoxypyridin-2-yl)amino)nicotinamide] | 0.955 nM | > 10000 nM | > 10000 nM | – | – | – | –
21 | C#Cc1ccc(Nc2cc(Nc3cccc(F)n3)ncc2C(=O)NOC)c(N(C)S(C)(=O)=O)c1 [Example 19] | 1.06 nM | > 10000 nM | > 10000 nM | – | – | – | –
22 | CONC(=O)c1cnc(Nc2ccc(OC)cn2)cc1Nc1ccccc1N(C)S(C)(=O)=O [Example 101] | 1.47 nM | > 10000 nM | > 10000 nM | – | – | – | –
